Laboratory results from PubChem BioAssay (NCI).
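Five concentrations, 48 hours, 96-well plates. Here, GI50 denotes the concentration required for 50% inhibition of growth. Definition used: TGI = concentration required for complete inhibition of growth.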

Assays:
Assay in all cases: growth of human tumour cells (NCI), 48 h
786-0 renal = system: 786-0 renal
A498 renal = system: A498 renal
A549 NSCLC = system: A549 NSCLC
ACHN renal = system: ACHN renal
BT-549 breast = system: BT-549 breast
CAKI-1 renal = system: CAKI-1 renal
CCRF-CEM leukemia = system: CCRF-CEM leukemia
COLO 205 colon = system: COLO 205 colon
DU-145 prostate = system: DU-145 prostate
HCC-2998 colon = system: HCC-2998 colon
HCT-116 colon = system: HCT-116 colon
HCT-15 colon = system: HCT-15 colon
HL-60(TB) leukemia = system: HL-60(TB) leukemia
HOP-62 NSCLC = system: HOP-62 NSCLC
HOP-92 NSCLC = system: HOP-92 NSCLC
HS 578T breast = system: HS 578T breast
HT29 colon = system: HT29 colon
IGROV1 ovarian = system: IGROV1 ovarian
K-562 leukemia = system: K-562 leukemia
KM12 colon = system: KM12 colon
LOX IMVI melanoma = system: LOX IMVI melanoma
M14 melanoma = system: M14 melanoma
MALME-3M melanoma = system: MALME-3M melanoma
MCF7 breast = system: MCF7 breast
MDA-MB-231 breast = system: MDA-MB-231 breast
MDA-MB-435 = system: MDA-MB-435
MOLT-4 leukemia = system: MOLT-4 leukemia
NCI-H226 lung = system: NCI-H226 lung
NCI-H23 lung = system: NCI-H23 lung
NCI-H460 lung = system: NCI-H460 lung
NCI-H522 lung = system: NCI-H522 lung
NCI/ADR-RES ovarian = system: NCI/ADR-RES ovarian
OVCAR-3 ovarian = system: OVCAR-3 ovarian
OVCAR-4 ovarian = system: OVCAR-4 ovarian
OVCAR-5 ovarian = system: OVCAR-5 ovarian
OVCAR-8 ovarian = system: OVCAR-8 ovarian
PC-3 prostate = system: PC-3 prostate
RPMI-8226 leukemia = system: RPMI-8226 leukemia
RXF 393 renal = system: RXF 393 renal
SF-268 CNS = system: SF-268 CNS
SF-295 CNS = system: SF-295 CNS
SF-539 CNS = system: SF-539 CNS
SK-MEL-28 melanoma = system: SK-MEL-28 melanoma
SK-MEL-5 melanoma = system: SK-MEL-5 melanoma
SK-OV-3 ovarian = system: SK-OV-3 ovarian
SN12C renal = system: SN12C renal
SNB-19 CNS = system: SNB-19 CNS
SNB-75 CNS = system: SNB-75 CNS
SR leukemia = system: SR leukemia
SW-620 colon = system: SW-620 colon
T-47D breast = system: T-47D breast
TK-10 renal = system: TK-10 renal
U251 CNS = system: U251 CNS
UACC-257 melanoma = system: UACC-257 melanoma
UACC-62 melanoma = system: UACC-62 melanoma
UO-31 renal = system: UO-31 renal

CCCCC(O)(c1ccc(Cl)cc1)C(CN1CCOCC1)c1ccc(Cl)cc1 (configuration not stated)
GI50 (786-0 renal): 13.6 µM | TGI (786-0 renal): 27.5 µM | GI50 (A498 renal): 11.1 µM | TGI (A498 renal): 24.1 µM | GI50 (A549 NSCLC): 12.5 µM | TGI (A549 NSCLC): 30.9 µM | GI50 (ACHN renal): 14.4 µM | TGI (ACHN renal): 28.5 µM | GI50 (BT-549 breast): 15.7 µM | TGI (BT-549 breast): 31 µM | GI50 (CAKI-1 renal): 14.6 µM | TGI (CAKI-1 renal): 32.6 µM | GI50 (CCRF-CEM leukemia): 14.3 µM | TGI (CCRF-CEM leukemia): 36.2 µM | GI50 (COLO 205 colon): 10.8 µM | TGI (COLO 205 colon): 25.5 µM | GI50 (DU-145 prostate): 15.7 µM | TGI (DU-145 prostate): 29.8 µM | GI50 (HCC-2998 colon): 12.3 µM | TGI (HCC-2998 colon): 26.8 µM | GI50 (HCT-116 colon): 5.23 µM | TGI (HCT-116 colon): 20.3 µM | GI50 (HCT-15 colon): 11.2 µM | TGI (HCT-15 colon): 26.2 µM | GI50 (HL-60(TB) leukemia): 16.7 µM | TGI (HL-60(TB) leukemia): 39.5 µM | GI50 (HOP-62 NSCLC): 16.3 µM | TGI (HOP-62 NSCLC): 34.5 µM | GI50 (HOP-92 NSCLC): 10.6 µM | TGI (HOP-92 NSCLC): 23.6 µM | GI50 (HS 578T breast): 16.8 µM | TGI (HS 578T breast): 46.5 µM | GI50 (HT29 colon): 4.14 µM | TGI (HT29 colon): 18.2 µM | GI50 (IGROV1 ovarian): 8.68 µM | TGI (IGROV1 ovarian): 33 µM | GI50 (K-562 leukemia): 12.2 µM | TGI (K-562 leukemia): 41.1 µM | GI50 (KM12 colon): 12.2 µM | TGI (KM12 colon): 29.1 µM | GI50 (LOX IMVI melanoma): 14.4 µM | TGI (LOX IMVI melanoma): 28.3 µM | GI50 (M14 melanoma): 13.8 µM | TGI (M14 melanoma): 33.4 µM | GI50 (MALME-3M melanoma): 15.6 µM | TGI (MALME-3M melanoma): 33.8 µM | GI50 (MCF7 breast): 10.6 µM | TGI (MCF7 breast): 24.5 µM | GI50 (MDA-MB-231 breast): 12.7 µM | TGI (MDA-MB-231 breast): 27.7 µM | GI50 (MDA-MB-435): 15.3 µM | TGI (MDA-MB-435): 39 µM | GI50 (MOLT-4 leukemia): 10.7 µM | TGI (MOLT-4 leukemia): 30.7 µM | GI50 (NCI-H226 lung): 11.8 µM | TGI (NCI-H226 lung): 28.8 µM | GI50 (NCI-H23 lung): 10.6 µM | TGI (NCI-H23 lung): 28.7 µM | GI50 (NCI-H460 lung): 10.7 µM | TGI (NCI-H460 lung): 25.7 µM | GI50 (NCI-H522 lung): 7.26 µM | TGI (NCI-H522 lung): 21.7 µM | GI50 (NCI/ADR-RES ovarian): 12 µM | TGI (NCI/ADR-RES ovarian): 32.2 µM | GI50 (OVCAR-3 ovarian): 14.5 µM | TGI (OVCAR-3 ovarian): 28 µM | GI50 (OVCAR-4 ovarian): 13.6 µM | TGI (OVCAR-4 ovarian): 29 µM | GI50 (OVCAR-5 ovarian): 10.7 µM | TGI (OVCAR-5 ovarian): 23.7 µM | GI50 (OVCAR-8 ovarian): 15.7 µM | TGI (OVCAR-8 ovarian): 42 µM | GI50 (PC-3 prostate): 7.68 µM | TGI (PC-3 prostate): 23.9 µM | GI50 (RPMI-8226 leukemia): 10.4 µM | TGI (RPMI-8226 leukemia): 36.2 µM | GI50 (RXF 393 renal): 8.15 µM | TGI (RXF 393 renal): 22.8 µM | GI50 (SF-268 CNS): 12.6 µM | TGI (SF-268 CNS): 27.2 µM | GI50 (SF-295 CNS): 14.4 µM | TGI (SF-295 CNS): 30.7 µM | GI50 (SF-539 CNS): 17 µM | TGI (SF-539 CNS): 36.6 µM | GI50 (SK-MEL-28 melanoma): 15.9 µM | TGI (SK-MEL-28 melanoma): 33.9 µM | GI50 (SK-MEL-5 melanoma): 13.8 µM | TGI (SK-MEL-5 melanoma): 28.7 µM | GI50 (SK-OV-3 ovarian): 15.2 µM | TGI (SK-OV-3 ovarian): 47.1 µM | GI50 (SN12C renal): 12.6 µM | TGI (SN12C renal): 28.5 µM | GI50 (SNB-19 CNS): 15.3 µM | TGI (SNB-19 CNS): 36.6 µM | GI50 (SNB-75 CNS): 16.8 µM | TGI (SNB-75 CNS): 44.7 µM | GI50 (SR leukemia): 12.5 µM | TGI (SR leukemia): 32.3 µM | GI50 (SW-620 colon): 11.5 µM | TGI (SW-620 colon): 25.3 µM | GI50 (T-47D breast): 11.3 µM | TGI (T-47D breast): 25 µM | GI50 (TK-10 renal): 16.6 µM | TGI (TK-10 renal): 31.2 µM | GI50 (U251 CNS): 13.6 µM | TGI (U251 CNS): 27.5 µM | GI50 (UACC-257 melanoma): 14.3 µM | TGI (UACC-257 melanoma): 35 µM | GI50 (UACC-62 melanoma): 12.4 µM | TGI (UACC-62 melanoma): 28.7 µM | GI50 (UO-31 renal): 12.2 µM | TGI (UO-31 renal): 26.2 µM
